# Test results reported in US12077503B2, “Substituted cyclic amides and their use as herbicides” (FMC CORPORATION, priority 2015, dated 2024).
# Read-outs that look alike come from different tables or passages of the source.
# Tests used:
# Format in all cases: in vivo
# [1] = system: sedge, umbrella (small-flower umbrella sedge, Cyperus difformis); test: Test B flooded paddy test; details: Cyperus difformis, Flood, 250 g ai/ha, read-out: Sedge, Umbrella plant response rating
# Procedure, shortened: (§1)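 Plants at 2-leaf stage flooded to 3 cm above soil, with compounds applied directly to paddy water and that depth maintained. Plants kept in greenhouse 13–15 d. Visual rating versus controls on a 0 (no effect) to 100 (complete control) scale.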
# [2] = system: rice (Oryra sativa); test: Test B flooded paddy test; details: Oryza sativa, Flood, 250 g ai/ha, read-out: Rice plant response rating
# Procedure, shortened: as §1
# [3] = system: barnyardgrass (Echinochloa crus-galli); test: Test B flooded paddy test; details: Echinochloa crus-galli, Flood, 250 g ai/ha, read-out: Barnyardgrass plant response rating
# Procedure, shortened: as §1
# [4] = system: ducksalad (Heteranthera limosa); test: Test B flooded paddy test; details: Heteranthera limosa, Flood, 250 g ai/ha, read-out: Ducksalad plant response rating
# Procedure, shortened: as §1
# [5] = system: Galium (catchweed bedstraw, Galium aparine); test: Test A postemergence; details: Galium, post-emergence, 240 h, postemergence; for pest or weed control at 125 g/ha: 125 g ai/ha
# Procedure, shortened: (§2)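 Seeds sprayed preemergence with a directed soil spray, or plants at 2 to 10 cm height and one- to two-leaf stage sprayed postemergence, with test chemicals in a non-phytotoxic solvent mixture containing surfactant, in loam soil–sand blend. Injury rated visually against untreated controls after about 10 d in greenhouse, 0 (no effect) to 100 (complete control).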
# [6] = system: barnyardgrass (Echinochloa crus-galli); test: Test A postemergence; details: Echinochloa crus-galli, post-emergence, 240 h, 125 g ai/ha, postemergence; visual injury after approximately 10 d; 0 to 100 scale (0 no effect, 100 complete control); read-out: Plant response rating, Barnyardgrass
# Procedure, shortened: as §2
# [7] = system: giant foxtail (Setaria faberii); test: Test A postemergence; details: Setaria faberi, post-emergence, 240 h, postemergence; for pest or weed control at 125 g/ha: 125 g ai/ha
# Procedure, shortened: as §2
# [8] = system: Kochia (Kochia scoparia); test: Test A preemergence; details: Bassia scoparia, pre-emergence, 240 h; for pest or weed control at 500 g/ha: 500 g ai/ha; for pest or weed control at 125 g/ha: 125 g ai/ha
# Procedure, shortened: as §2
# [9] = system: ryegrass, Italian (Italian ryegrass, Lolium multiflorum); test: Test A preemergence; details: Lolium multiflorum, pre-emergence, 240 h; for pest or weed control at 125 g/ha: 125 g ai/ha; for pest or weed control at 500 g/ha: 500 g ai/ha
# Procedure, shortened: as §2
# [10] = system: ragweed (common ragweed, Ambrosia elatior); test: Test A preemergence; details: Ambrosia artemisiifolia, pre-emergence, 240 h; for pest or weed control at 125 g/ha: 125 g ai/ha; for pest or weed control at 500 g/ha: 500 g ai/ha
# Procedure, shortened: as §2
# [11] = system: pigweed (Amaranthus retroflexus); test: Test A preemergence; details: Amaranthus retroflexus, pre-emergence, 240 h; for pest or weed control at 125 g/ha: 125 g ai/ha; for pest or weed control at 500 g/ha: 500 g ai/ha
# [12] = system: barnyardgrass (Echinochloa crus-galli); test: Test A preemergence; details: Echinochloa crus-galli, pre-emergence, 240 h; for pest or weed control at 125 g/ha: 125 g ai/ha; for pest or weed control at 500 g/ha: 500 g ai/ha
# Procedure, shortened: as §2
# [13] = system: giant foxtail (Setaria faberii); test: Test A preemergence; details: Setaria faberi, pre-emergence, 240 h; for pest or weed control at 125 g/ha: 125 g ai/ha; for pest or weed control at 500 g/ha: 500 g ai/ha
# Procedure, shortened: as §2
# [14] = system: wheat (Triticum aestivum); test: Test A postemergence; details: Triticum aestivum, post-emergence, 240 h, postemergence
# Procedure, shortened: as §2
# [15] = scale of 0 to 100 where 0 is no effect and 100 is complete control
# [16] = visual injury after approximately 10 d, 0 to 100 scale (0 no effect, 100 complete control), read-out: Plant response rating, Galium
# [17] = visual injury after approximately 10 d, 0 to 100 scale (0 no effect, 100 complete control), read-out: Plant response rating, Foxtail, Giant
# [18] = Preemergence, visual injury vs untreated controls after approximately 10 d, read-out: Kochia plant response rating (0 to 100 scale where 0 is no effect and 100 is complete control)
# [19] = preemergence, visual rating after approx. 10 d, 0 to 100 scale where 0 is no effect and 100 is complete control, read-out: Plant response rating, Ryegrass, Italian
# [20] = Preemergence, visual injury vs untreated controls after approximately 10 d, read-out: Ryegrass, Italian plant response rating (0 to 100 scale where 0 is no effect and 100 is complete control)
# [21] = preemergence, visual rating after approx. 10 d, 0 to 100 scale where 0 is no effect and 100 is complete control, read-out: Plant response rating, Ragweed
# [22] = Preemergence, visual injury vs untreated controls after approximately 10 d, read-out: Ragweed plant response rating (0 to 100 scale where 0 is no effect and 100 is complete control)
# [23] = preemergence, visual rating after approx. 10 d, 0 to 100 scale where 0 is no effect and 100 is complete control, read-out: Plant response rating, Pigweed
# [24] = Preemergence, visual injury vs untreated controls after approximately 10 d, read-out: Pigweed plant response rating (0 to 100 scale where 0 is no effect and 100 is complete control)
# [25] = preemergence, visual rating after approx. 10 d, 0 to 100 scale where 0 is no effect and 100 is complete control, read-out: Plant response rating, Barnyardgrass
# [26] = Preemergence, visual injury vs untreated controls after approximately 10 d, read-out: Barnyardgrass plant response rating (0 to 100 scale where 0 is no effect and 100 is complete control)
# [27] = preemergence, visual rating after approx. 10 d, 0 to 100 scale where 0 is no effect and 100 is complete control, read-out: Plant response rating, Foxtail, Giant
# [28] = Preemergence, visual injury vs untreated controls after approximately 10 d, read-out: Foxtail, Giant plant response rating (0 to 100 scale where 0 is no effect and 100 is complete control)
# [29] = 0 to 100 scale where 0 is no effect and 100 is complete control
smiles,measurement,setting,value
Cc1cc([C@H]2CNC(=O)[C@@H]2C(=O)Nc2ccccc2F)ccc1Cl [Compound 789],pest or weed control at 250 g/ha,[1]; [15],0%
same,pest or weed control at 250 g/ha,[2]; [15],0%
same,pest or weed control at 250 g/ha,[3]; [15],20%
same,pest or weed control at 250 g/ha,[4]; [15],100%
same,pest or weed control at 125 g/ha,[5]; [16],40%
same,pest or weed control at 125 g/ha,[6],80%
same,pest or weed control at 125 g/ha,[7]; [17],30%
same,pest or weed control at 500 g/ha,[8]; [18],30%
same,pest or weed control at 125 g/ha,[9]; [19],0%
same,pest or weed control at 500 g/ha,[9]; [20],0%
same,pest or weed control at 125 g/ha,[10]; [21],0%
same,pest or weed control at 500 g/ha,[10]; [22],0%
same,pest or weed control at 125 g/ha,[11]; [23],0%
same,pest or weed control at 500 g/ha,[11]; [24],20%
same,pest or weed control at 125 g/ha,[12]; [25],90%
same,pest or weed control at 500 g/ha,[12]; [26],90%
same,pest or weed control at 125 g/ha,[13]; [27],60%
same,pest or weed control at 500 g/ha,[13]; [28],90%
Cc1cc([C@H]2CNC(=O)[C@@H]2C(=O)Nc2cccc(F)c2F)ccc1Cl [Compound 790],pest or weed control at 250 g/ha,[1]; [15],0%
same,pest or weed control at 250 g/ha,[2]; [15],0%
same,pest or weed control at 250 g/ha,[3]; [15],40%
same,pest or weed control at 250 g/ha,[4]; [15],100%
same,pest or weed control at 125 g/ha,[5]; [16],50%
same,pest or weed control at 125 g/ha,[6],80%
same,pest or weed control at 125 g/ha,[7]; [17],50%
same,pest or weed control at 125 g/ha,"[8]; preemergence, visual rating after approx. 10 d, 0 to 100 scale where 0 is no effect and 100 is complete control, read-out: Plant response rating, Kochia",70%
same,pest or weed control at 500 g/ha,[8]; [18],80%
same,pest or weed control at 125 g/ha,[9]; [19],30%
same,pest or weed control at 500 g/ha,[9]; [20],70%
same,pest or weed control at 125 g/ha,[10]; [21],20%
same,pest or weed control at 500 g/ha,[10]; [22],60%
same,pest or weed control at 125 g/ha,[11]; [23],0%
same,pest or weed control at 500 g/ha,[11]; [24],40%
same,pest or weed control at 125 g/ha,[12]; [25],90%
same,pest or weed control at 500 g/ha,[12]; [26],90%
same,pest or weed control at 125 g/ha,[13]; [27],70%
same,pest or weed control at 500 g/ha,[13]; [28],90%
CN1C[C@H](c2ccc3c(c2)OC(F)(F)O3)[C@@H](C(=O)Nc2ccc(F)c(F)c2F)C1=O [Compound 1204],pest or weed control at 250 g/ha,[1]; [29],0%
same,pest or weed control at 250 g/ha,[2]; [29],0%
same,pest or weed control at 250 g/ha,[3]; [29],70%
same,pest or weed control at 250 g/ha,[4]; [29],100%
same,plant injury at 125 g/ha,"[14]; 125 g ai/ha, visual injury vs untreated controls after approx. 10 d, 0 = no effect, 100 = complete control, read-out: Wheat plant response rating (0 to 100 scale)",60%
same,plant injury at 500 g/ha,"[14]; 500 g ai/ha, 0 to 100 scale, 0 is no effect, 100 is complete control, read-out: Wheat plant response rating",70%
same,pest or weed control at 125 g/ha,"[5]; visual injury vs untreated controls after approx. 10 d, 0 = no effect, 100 = complete control, read-out: Galium plant response rating (0 to 100 scale)",50%
same,pest or weed control at 500 g/ha,"[5]; 500 g ai/ha, 0 to 100 scale, 0 is no effect, 100 is complete control, read-out: Galium plant response rating",60%
same,pest or weed control at 125 g/ha,"[7]; visual injury vs untreated controls after approx. 10 d, 0 = no effect, 100 = complete control, read-out: Foxtail, Giant plant response rating (0 to 100 scale)",90%
same,pest or weed control at 500 g/ha,"[7]; 500 g ai/ha, 0 to 100 scale, 0 is no effect, 100 is complete control, read-out: Foxtail, Giant plant response rating",90%
same,pest or weed control at 125 g/ha,"[8]; preemergence, visual injury rating, 0 to 100 scale where 0 is no effect and 100 is complete control, approximately 10 d, read-out: Kochia plant response rating",80%
same,pest or weed control at 500 g/ha,"[8]; preemergence, 0 to 100 scale where 0 is no effect and 100 is complete control, read-out: Kochia plant response rating",80%
same,pest or weed control at 125 g/ha,"[9]; preemergence, visual injury rating, 0 to 100 scale where 0 is no effect and 100 is complete control, approximately 10 d, read-out: Ryegrass, Italian plant response rating",70%
same,pest or weed control at 500 g/ha,"[9]; preemergence, 0 to 100 scale where 0 is no effect and 100 is complete control, read-out: Ryegrass, Italian plant response rating",90%
same,pest or weed control at 125 g/ha,"[10]; preemergence, visual injury rating, 0 to 100 scale where 0 is no effect and 100 is complete control, approximately 10 d, read-out: Ragweed plant response rating",90%
same,pest or weed control at 500 g/ha,"[10]; preemergence, 0 to 100 scale where 0 is no effect and 100 is complete control, read-out: Ragweed plant response rating",90%
same,pest or weed control at 125 g/ha,"[11]; preemergence, visual injury rating, 0 to 100 scale where 0 is no effect and 100 is complete control, approximately 10 d, read-out: Pigweed plant response rating",70%
same,pest or weed control at 500 g/ha,"[11]; preemergence, 0 to 100 scale where 0 is no effect and 100 is complete control, read-out: Pigweed plant response rating",100%
same,pest or weed control at 125 g/ha,"[12]; preemergence, visual injury rating, 0 to 100 scale where 0 is no effect and 100 is complete control, approximately 10 d, read-out: Barnyardgrass plant response rating",90%
same,pest or weed control at 500 g/ha,"[12]; preemergence, 0 to 100 scale where 0 is no effect and 100 is complete control, read-out: Barnyardgrass plant response rating",90%
same,pest or weed control at 125 g/ha,"[13]; preemergence, visual injury rating, 0 to 100 scale where 0 is no effect and 100 is complete control, approximately 10 d, read-out: Foxtail, Giant plant response rating",90%
same,pest or weed control at 500 g/ha,"[13]; preemergence, 0 to 100 scale where 0 is no effect and 100 is complete control, read-out: Foxtail, Giant plant response rating",90%
